The source of these data is patent US20240217968A1, “PHARMACEUTICAL COMPOUND” (DUKE STREET BIO LIMITED, priority 2021, published 2024).

Some results are limits rather than exact numbers.

A word on the IC50: it is the concentration that gives 50% inhibition.

For the experiment, the target named is T1, recombinant human Flag-tagged PARP7 (amino acids 456-657) (Homo sapiens, UniProt Q7Z3E1).
T1 construct: recombinant human Flag-tagged PARP7 (amino acids 456-657)
T1 sequence (Q7Z3E1 456-657): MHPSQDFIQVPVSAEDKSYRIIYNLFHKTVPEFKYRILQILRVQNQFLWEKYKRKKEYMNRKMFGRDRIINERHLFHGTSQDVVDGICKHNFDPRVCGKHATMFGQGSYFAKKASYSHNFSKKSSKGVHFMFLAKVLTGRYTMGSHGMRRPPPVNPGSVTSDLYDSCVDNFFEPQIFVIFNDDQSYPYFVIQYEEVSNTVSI
Briefly: PARP7 biochemical DELFIA assay (auto-MARylation). Particulars: DELFIA readout, IC50 class. A digest of the protocol: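 Readout is DELFIA time-resolved Eu fluorescence (Ex337 nm, Em620 nm) of biotin-ADP-ribose on immobilised Flag-tagged PARP7 456-657. Enzyme (12.5-37.5 nM as added) sat 30 min with compound before biotin-NAD+ (15 μM solution, pH 7.5 HEPES buffer) started 2-3 h room-temperature self-modification, stopped with excess NAD+.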

With `[2H]C([2H])(OCCC(=O)N1CCN(c2ncc(C#N)cn2)CC1)C(C)n1nc(C(F)(F)F)c2c(=O)[nH]ncc21` (single isomer, unassigned) [Compound 420, 2-(4-(3-(2-(4-oxo-3-(trifluoromethyl)-4,5-dihydro-1H-pyrazolo[3,4-d]pyridazin-1-yl)propoxy-1,1-d2)propanoyl)piperazin-1-yl)pyrimidine-5-carbonitrile], the IC50 is not above 100 nM.
As for `[2H]C([2H])(OCCC(=O)N1CCN(c2ncc(C#N)cn2)CC1)C(C)n1nc(C(F)(F)F)c2c(=O)[nH]ncc21` (single isomer, unassigned) [Compound 421, 2-(4-(3-(2-(4-oxo-3-(trifluoromethyl)-4,5-dihydro-1H-pyrazolo[3,4-d]pyridazin-1-yl)propoxy-1,1-d2)propanoyl)piperazin-1-yl)pyrimidine-5-carbonitrile], the IC50 is not above 100 nM.
Then `[2H]C([2H])(OCCC(=O)N1CCN(c2ncc(C(F)(F)F)cn2)CC1)C(C)n1nc(C(F)(F)F)c2c(=O)[nH]ncc21` (single isomer, unassigned) [Compound 423], with not above 100 nM; and `O=C(CCOCC(c1cccc2c(=O)[nH]ncc12)C(F)(F)F)N1CCN(c2ncc(C(F)(F)F)cn2)CC1` (single isomer, unassigned) [Compound 427], with 100 to 1000 nM; and `CC(COCCC(=O)N1CCN(c2cc(C(F)(F)F)on2)CC1)n1nc(C(F)(F)F)c2c(=O)[nH]ncc21` (single isomer, unassigned) [Compound 429], with not above 100 nM.
The figure for `CC(COCCC(=O)N1CCN(c2cc(C(F)(F)F)on2)CC1)n1nc(C(F)(F)F)c2c(=O)[nH]ncc21` (single isomer, unassigned) [Compound 430] is 100 to 1000 nM; for `CC(COCCC(=O)N1CCN(c2ccc(C#N)cn2)CC1)n1cc(C(F)(F)F)c2c(=O)[nH]ncc21` (single isomer, unassigned) [Compound 431] it is not above 100 nM.
The figure for `CC(COCCC(=O)N1CCN(c2ccc(C#N)cn2)CC1)n1cc(C(F)(F)F)c2c(=O)[nH]ncc21` (single isomer, unassigned) [Compound 432] is not above 100 nM; for `CC(COCCC(=O)N1CCN(c2ncc(C(F)(F)F)cn2)CC1)n1nc(C(F)F)c2c(=O)[nH]ncc21` (single isomer, unassigned) [Compound 436] it is not above 100 nM; for `CC(COCCC(=O)N1CCN(c2ccc(C#N)cn2)CC1)n1nc(C(F)F)c2c(=O)[nH]ncc21` (single isomer, unassigned) [Compound 437] it is not above 100 nM.
For `CC(COCCC(=O)N1CCN(c2ncc(C#N)cn2)CC1)n1cc(C(F)F)c2c(=O)[nH]ncc21` (single isomer, unassigned) [Compound 439], the IC50 is not above 100 nM.
On to `CC(COCCC(=O)N1CCN(c2cc(Cl)c(F)cn2)CC1)n1nc(C(F)(F)F)c2c(=O)[nH]ncc21` (single isomer, unassigned) [Compound 444], for which the IC50 was not above 100 nM.
In the case of `CC(COCCC(=O)N1CCN(c2cc(Cl)c(F)cn2)CC1)n1nc(C(F)(F)F)c2c(=O)[nH]ncc21` (single isomer, unassigned) [Compound 445], the IC50 was not above 100 nM.
With `CC(COCCC(=O)N1CCN(c2ccc(C#N)cn2)CC1)n1cc(C(F)F)c2c(=O)[nH]ncc21` (single isomer, unassigned) [Compound 448], the IC50 was not above 100 nM.
The figure for `CC(CCOCC(=O)N1CCN(c2ncc(C(F)(F)F)cn2)CC1)n1cc(C(F)(F)F)c2c(=O)[nH]ncc21` (single isomer, unassigned) [Compound 455] is not above 100 nM; for `CC(CCOCC(=O)N1CCN(c2ncc(Cl)cn2)CC1)n1cc(C(F)(F)F)c2c(=O)[nH]ncc21` (single isomer, unassigned) [Compound 456] it is not above 100 nM.
Then `CC(CCOCC(=O)N1CCN(c2ncc(Cl)cn2)CC1)n1cc(C(F)(F)F)c2c(=O)[nH]ncc21` (single isomer, unassigned) [Compound 457], with not above 100 nM.
